Data from PubChem BioAssay (NCI).
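Where inhibition never reached the appropriate level, the endpoint shown equals the highest concentration tested. Otherwise, values were interpolated linearly from a five-concentration, 48-hour dose response in 96-well plates. TGI: total growth inhibition.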

Tests used:
Experiment in all cases: growth of human tumour cells (NCI), 48 h
[1] = test system: 786-0 renal
[2] = test system: A549 NSCLC
[3] = test system: ACHN renal
[4] = test system: BT-549 breast
[5] = test system: CAKI-1 renal
[6] = test system: COLO 205 colon
[7] = test system: DU-145 prostate
[8] = test system: EKVX NSCLC
[9] = test system: HCC-2998 colon
[10] = test system: HCT-116 colon
[11] = test system: HCT-15 colon
[12] = test system: HL-60(TB) leukemia
[13] = test system: HOP-62 NSCLC
[14] = test system: HOP-92 NSCLC
[15] = test system: HS 578T breast
[16] = test system: HT29 colon
[17] = test system: IGROV1 ovarian
[18] = test system: K-562 leukemia
[19] = test system: KM12 colon
[20] = test system: LOX IMVI melanoma
[21] = test system: M14 melanoma
[22] = test system: MALME-3M melanoma
[23] = test system: MCF7 breast
[24] = test system: MDA-MB-231 breast
[25] = test system: MDA-MB-435
[26] = test system: MDA-N
[27] = test system: MOLT-4 leukemia
[28] = test system: NCI-H226 lung
[29] = test system: NCI-H23 lung
[30] = test system: NCI-H522 lung
[31] = test system: NCI/ADR-RES ovarian
[32] = test system: OVCAR-3 ovarian
[33] = test system: OVCAR-4 ovarian
[34] = test system: OVCAR-5 ovarian
[35] = test system: OVCAR-8 ovarian
[36] = test system: PC-3 prostate
[37] = test system: RPMI-8226 leukemia
[38] = test system: RXF 393 renal
[39] = test system: SF-268 CNS
[40] = test system: SF-295 CNS
[41] = test system: SF-539 CNS
[42] = test system: SK-MEL-2 melanoma
[43] = test system: SK-MEL-28 melanoma
[44] = test system: SK-MEL-5 melanoma
[45] = test system: SK-OV-3 ovarian
[46] = test system: SN12C renal
[47] = test system: SNB-19 CNS
[48] = test system: SNB-75 CNS
[49] = test system: SW-620 colon
[50] = test system: T-47D breast
[51] = test system: TK-10 renal
[52] = test system: U251 CNS
[53] = test system: UACC-257 melanoma
[54] = test system: UACC-62 melanoma
[55] = test system: UO-31 renal

Measured: TGI

Cc1ccc(/C=N/NC2=NCCN2)s1
> 100 µM: all assays above
